# Molecular target: T1, histamine-3 receptors (H3 receptor) (Rattus norvegicus, UniProt Q9QYN8)
# T1 construct: from tissue; host or cells: male Sprague-Dawley rat brain cortex membranes
# Test: (3H)-N-α-methylhistamine binding to rat cortical membranes (histamine-3 receptor ligands)
# Settings: male Sprague-Dawley rat brain cortical membranes; (3H)-N-α-methylhistamine ~0.6 nM; 30 minutes at 25° C.; Cheng-Prusoff
# Method: Briefly, male Sprague-Dawley rat brain cortices were homogenized (1 g tissue/10 mL buffer) in 50 mM Tris-HCl/5 mM EDTA containing protease inhibitor cocktail (Calbiochem) using a polytron set at 20,500 rpm. Homogenates were centrifuged for 20 minutes at 40,000×g. The supernatant was decanted, and pellets were weighed. The pellet was resuspended by polytron homogenization in 40 mL 50 mM Tris-HCl/5 mM EDTA with protease inhibitors and centrifuged for 20 minutes at 40,000×g. […] Rat cortical membranes (12 mg wet weight/tube) were incubated with (^3H)-N-α-methylhistamine (˜0.6 nM) with or without H3 receptor antagonists in a total incubation volume of 0.5 mL of 50 mM Tris-HCl/5 mM EDTA (pH 7.7). Test compounds were dissolved in DSMO to provide a 20 mM solution, serially diluted and then added to the incubation mixture prior to initiating the incubation assay by addition of the membranes. Thioperamide (3 μM) was used to determine nonspecific binding. Binding incubations were conducted for 30 minutes at 25° C. and terminated by addition of 2 mL of ice cold 50 mM Tris-HCl (pH 7.7) and filtration through 0.3% polyethylenimine-soaked Unifilter plates (Packard). These filters were washed 4 additional times with 2 mL of ice-cold 50 mM Tris-HCl and dried for 1 hour. Radioactivity was determined using liquid scintillation counting techniques. Results were analyzed by Hill transformation and Ki values were determined using the Cheng-Prusoff equation.
# T1 sequence (Q9QYN8 whole entry): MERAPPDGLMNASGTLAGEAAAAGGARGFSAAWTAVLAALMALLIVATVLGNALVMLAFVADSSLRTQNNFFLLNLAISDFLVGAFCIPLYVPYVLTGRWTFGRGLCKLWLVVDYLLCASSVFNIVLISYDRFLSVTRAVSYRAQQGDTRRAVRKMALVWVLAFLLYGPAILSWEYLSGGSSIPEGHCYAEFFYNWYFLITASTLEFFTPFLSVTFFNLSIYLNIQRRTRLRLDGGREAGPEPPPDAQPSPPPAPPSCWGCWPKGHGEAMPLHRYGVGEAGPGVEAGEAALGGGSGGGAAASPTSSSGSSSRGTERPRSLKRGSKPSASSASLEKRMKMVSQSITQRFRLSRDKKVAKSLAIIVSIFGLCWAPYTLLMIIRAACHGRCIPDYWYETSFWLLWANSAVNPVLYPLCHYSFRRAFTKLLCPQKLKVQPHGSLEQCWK
row,Molecule,Ki [µM]
1,"3-{[3-(2-{2-[(2R)-2-methylpyrrolidin-1-yl]ethyl}-1-benzofuran-5-yl)-1,2,4-oxadiazol-5-yl]methyl}benzonitrile [Example 93]",0.006
2,"4-(2-{2-[-2,6-dimethylpiperidinyl]ethyl}-1-benzofuran-5-yl)benzonitrile [Example 11]",0.0193
3,4-(6-methyl-2-{2-[(2R)-2-methyl-1-pyrrolidinyl]ethyl}-1-benzofuran-5-yl)benzonitrile and 4-(4-methyl-2-{2-[(2R)-2-methyl-1-pyrrolidinyl]ethyl}-1-benzofuran-5-yl)benzonitrile [Example 108],0.008
4,"4-[4-(2-{2-[-2,6-dimethylpiperidinyl]ethyl}-1-benzofuran-5-yl)benzoyl]morpholine [Example 29]",0.00846
5,"N#Cc1ccc(-c2ccc3oc(CCN4CCCC4)cc3c2)cc1 [Example 2, 4-{2-[2-(1-pyrrolidinyl)ethyl]-1-benzofuran-5-yl}benzonitrile]",0.0468
6,"N#Cc1ccc(-c2ccc3oc(CCN4CCCCC4)cc3c2)cc1 [Example 4, 4-{2-[2-(1-piperidinyl)ethyl]-1-benzofuran-5-yl}benzonitrile]",0.0588
7,"CC1CCCCN1CCc1cc2cc(-c3ccc(C#N)cc3)ccc2o1 (stereo not shown) [Example 6, 4-{2-[2-(2-methyl-1-piperidinyl)ethyl]-1-benzofuran-5-yl}benzonitrile]",0.0449
8,"COC(=O)[C@@H]1CCCN1CCc1cc2cc(-c3ccc(C#N)cc3)ccc2o1 [Example 15, 4-(2-{2-[2-pyrrolidinemethyl carboxylate]ethyl}-1-benzofuran-5-yl)benzonitrile]",≥ 1
9,O=C(c1ccc(-c2ccc3oc(CCN4CCC[C@H]4CO)cc3c2)cc1)N1CCOCC1 [Example 34],0.00689
10,"C[C@@H]1CCC[C@H](C)N1CCc1cc2cc(-c3ccc(C(=O)N4CCOCC4)cn3)ccc2o1 [Example 50, 4-{[6-(2-{2-[-2,6-dimethylpiperidinyl]ethyl}-1-benzofuran-5-yl)-3-pyridinyl]carbonyl}morpholine]",0.0371
11,"O=C(c1ccc(-c2ccc3oc(CCN4CCC5(CC4)OCCO5)cc3c2)nc1)N1CCOCC1 [Example 60, 8-(2-{5-[5-(4-morpholinylcarbonyl)-2-pyridinyl]-1-benzofuran-2-yl}ethyl)-1,4-dioxa-8-azaspiro[4.5]decane]",≥ 1
12,"C=CCNCCc1cc2cc(-c3ccc(C(=O)N4CCOCC4)cn3)ccc2o1 [Example 63, N-allyl-N-(2-{5-[5-(4-morpholinylcarbonyl)-2-pyridinyl]-1-benzofuran-2-yl}ethyl)amine]",≥ 1
13,"O=C(c1ccc(-c2ccc3oc(CCNCCCO)cc3c2)nc1)N1CCOCC1 [Example 64, 3-[(2-{5-[5-(4-morpholinylcarbonyl)-2-pyridinyl]-1-benzofuran-2-yl}ethyl)amino]-1-propanol]",≥ 1
14,"C[C@@H]1CCCN1CCc1cc2c(-c3ccc(C#N)cc3)cccc2o1 [Example 85, 4-(2-{2-[(2R)-2-methyl-1-pyrrolidinyl]ethyl}-1-benzofuran-4-yl)benzonitrile]",0.042
15,"C[C@@H]1CCCN1CCc1cc2ccc(-c3ccc(C#N)cc3)cc2o1 [Example 86, 4-(2-{2-[(2R)-2-methyl-1-pyrrolidinyl]ethyl}-1-benzofuran-6-yl)benzonitrile]",0.0035
16,"C[C@@H]1CCCN1CCc1cc2cc(-c3noc(Cc4cccs4)n3)ccc2o1 [Example 87, 3-(2-{2-[(2R)-2-methylpyrrolidin-1-yl]ethyl}-1-benzofuran-5-yl)-5-(thien-2-ylmethyl)-1,2,4-oxadiazole]",0.016
17,"C[C@@H]1CCCN1CCc1cc2cc(-c3noc(-c4ccc(C#N)cc4)n3)ccc2o1 [Example 88, 4-[3-(2-{2-[(2R)-2-methylpyrrolidin-1-yl]ethyl}-1-benzofuran-5-yl)-1,2,4-oxadiazol-5-yl]benzonitrile]",0.064
18,"C[C@@H]1CCCN1CCc1cc2cc(-c3noc(-c4ccc(Cl)cc4)n3)ccc2o1 [Example 89, 5-(4-chlorophenyl)-3-(2-{2-[(2R)-2-methylpyrrolidin-1-yl]ethyl}-1-benzofuran-5-yl)-1,2,4-oxadiazole]",0.012
19,"C[C@@H]1CCCN1CCc1cc2cc(-c3noc(-c4ccccc4Cl)n3)ccc2o1 [Example 90, 5-(2-chlorophenyl)-3-(2-{2-[(2R)-2-methylpyrrolidin-1-yl]ethyl}-1-benzofuran-5-yl)-1,2,4-oxadiazole]",0.021

row,Molecule,Ki [µM]
1,"C[C@@H]1CCCN1CCc1cc2cc(-c3noc(Cc4ccc(F)cc4)n3)ccc2o1 [Example 91, 5-(4-fluorobenzyl)-3-(2-{2-[(2R)-2-methylpyrrolidin-1-yl]ethyl}-1-benzofuran-5-yl)-1,2,4-oxadiazole]",0.01
2,"COc1ccc(Cc2nc(-c3ccc4oc(CCN5CCC[C@H]5C)cc4c3)no2)cc1 [Example 92, 5-(4-methoxybenzyl)-3-(2-{2-[(2R)-2-methylpyrrolidin-1-yl]ethyl}-1-benzofuran-5-yl)-1,2,4-oxadiazole]",0.015
3,"C[C@@H]1CCCN1CCc1cc2cc(-c3noc(-c4ccccc4)n3)ccc2o1 [Example 94, 3-(2-{2-[(2R)-2-methylpyrrolidin-1-yl]ethyl}-1-benzofuran-5-yl)-5-phenyl-1,2,4-oxadiazole]",0.016
4,"C[C@@H]1CCCN1CCc1cc2cc(-c3noc(-c4ccc(F)cc4)n3)ccc2o1 [Example 95, 5-(4-fluorophenyl)-3-(2-{2-[(2R)-2-methylpyrrolidin-1-yl]ethyl}-1-benzofuran-5-yl)-1,2,4-oxadiazole]",0.012
5,"C[C@@H]1CCCN1CCc1cc2cc(-c3noc(-c4ccc(F)c(Cl)c4)n3)ccc2o1 [Example 96, 5-(3-chloro-4-fluorophenyl)-3-(2-{2-[(2R)-2-methylpyrrolidin-1-yl]ethyl}-1-benzofuran-5-yl)-1,2,4-oxadiazole]",0.223
6,"C[C@@H]1CCCN1CCc1cc2cc(-c3noc(CCl)n3)ccc2o1 [Example 97, 5-(chloromethyl)-3-(2-{2-[(2R)-2-methylpyrrolidin-1-yl]ethyl}-1-benzofuran-5-yl)-1,2,4-oxadiazole]",0.0014
7,"CCCc1nc(-c2ccc3oc(CCN4CCC[C@H]4C)cc3c2)no1 [Example 98, 3-(2-{2-[(2R)-2-methylpyrrolidin-1-yl]ethyl}-1-benzofuran-5-yl)-5-propyl-1,2,4-oxadiazole]",0.0007
8,"CCc1nc(-c2ccc3oc(CCN4CCC[C@H]4C)cc3c2)no1 [Example 99, 5-ethyl-3-(2-{2-[(2R)-2-methylpyrrolidin-1-yl]ethyl}-1-benzofuran-5-yl)-1,2,4-oxadiazole]",0.0036
9,"Cc1nc(-c2ccc3oc(CCN4CCC[C@H]4C)cc3c2)no1 [Example 100, 5-methyl-3-(2-{2-[(2R)-2-methylpyrrolidin-1-yl]ethyl}-1-benzofuran-5-yl)-1,2,4-oxadiazole]",0.006
10,"C[C@@H]1CCCN1CCc1oc2ccc(-c3ccc(C#N)cc3)cc2c1Br [Example 101, 4-(3-bromo-2-{2-[(2R)-2-methylpyrrolidin-1-yl]ethyl}-1-benzofuran-5-yl)benzonitrile]",0.0034
11,"C[C@@H]1CCCN1CCc1oc2ccc(-c3ccc(C#N)cc3)cc2c1-c1ccco1 [Example 102, 4-(3-(2-furyl)-2-{2-[(2R)-2-methylpyrrolidin-1-yl]ethyl}-1-benzofuran-5-yl)benzonitrile]",0.018
12,"C[C@@H]1CCCN1CCc1oc2ccc(-c3ccc(C#N)cc3)cc2c1-c1cccnc1 [Example 103, 4-[2-{2-[(2R)-2-methyl-1-pyrrolidinyl]ethyl}-3-(3-pyridinyl)-1-benzofuran-5-yl]benzonitrile]",0.013
13,"C[C@@H]1CCCN1CCc1oc2ccc(-c3ccc(C#N)cc3)cc2c1-c1ccsc1 [Example 104, 4-[2-{2-[(2R)-2-methyl-1-pyrrolidinyl]ethyl}-3-(3-thienyl)-1-benzofuran-5-yl]benzonitrile]",0.041
14,"C[C@@H]1CCCN1CCc1oc2ccc(-c3ccc(C#N)cc3)cc2c1-c1ccsc1C=O [Example 105, 4-(3-(2-formyl-3-thienyl)-2-{2-[(2R)-2-methyl-1-pyrrolidinyl]ethyl}-1-benzofuran-5-yl)benzonitrile]",0.006
15,"Cc1cc(-c2ccc3oc(CCN4CCC[C@H]4C)cc3c2)ccc1C#N [Example 106, 2-methyl-4-(2-{2-[(2R)-2-methyl-1-pyrrolidinyl]ethyl}-1-benzofuran-5-yl)benzonitrile]",0.0023
16,"Cc1cc(C#N)ccc1-c1ccc2oc(CCN3CCC[C@H]3C)cc2c1 [Example 107, 3-methyl-4-(2-{2-[(2R)-2-methyl-1-pyrrolidinyl]ethyl}-1-benzofuran-5-yl)benzonitrile]",0.008
17,"Cc1cc(-c2ccc(C#N)cc2)cc2cc(CCN3CCC[C@H]3C)oc12 [Example 109, 4-(7-methyl-2-{2-[(2R)-2-methyl-1-pyrrolidinyl]ethyl}-1-benzofuran-5-yl)benzonitrile]",0.01
18,"C[C@@H]1CCCN1CCc1cc2cc(-c3ccc(C#N)cc3)cc(F)c2o1 [Example 110, 4-(7-fluoro-2-{2-[(2R)-2-methyl-1-pyrrolidinyl]ethyl}-1-benzofuran-5-yl)benzonitrile]",0.006

# — US6969730B2, “Amines as histamine-3 receptor ligands and their therapeutic applications” (Abbott Laboratories, priority 2001, dated 2005)
